Assays:
[1] = biological target: T1, CYP3A4 (Homo sapiens, UniProt P08684); assay: CYP3A4 inhibitory in vitro assay (fluorometric inhibitor screening kit); format: biochemical; conditions: for inhibition at 150 µM: Concentration 150 (unit inferred); for inhibition at 200 µM: Concentration 200 (unit inferred)
T1 construct: purchased BioVision Inc. K702-200
Method: Briefly, incubations were conducted in a reaction volume of 200 μl/well in a 96-well microliter plate. For the calibration curve, resorufin (standard) was plotted by taking different concentrations (0, 4, 8, 12, 16, 20, 30, and 40 µl) of the 1 pmol/μl of the standard available in the kit. One mole of resorufin corresponds to the metabolism of 1 mol of the CYP3A4 substrate. […] The corresponding percentage inhibition due to the test ligand or positive inhibition control was calculated. CYP3A4 activities observed with punicalagin at varying concentrations (50,100, 150, 200, 250, and 300 µM) were noted down ([Hidaka et al., 2005]; [Faria et al., 2007]). The concentration at which 50% of the CYP3A4 activity is inhibited (IC50) was noted down. The logarithm values were plotted onto the graphs. Each compound was tested in triplicates. Inhibition curves were plotted from the log values of the concentration of the samples vs. the percentage inhibition calculated.

[2] = Pharmacokinetics of TAC in Wistar rats with and without oral PRE (LC-MS/MS of plasma); format: in vivo
Method: The assessment of TAC in all the samples was done with the help of the LC-MS/MS method. Samples were prepared following the method stated by [Shokati et al. (2015)]. After the preparation of samples, the supernatant was then used further for investigation. An aliquot of 10 μL was injected into the LC-MS/MS system. The column used for analysis was Eclipse XDB C-18 with 100 mm × […] × 3.5 um) with a flow rate of 1.5 ml/min (LC flow split to MS as 0.45 ml/min). The mobile phase used was a mixture of solvent A (acetonitrile) and solvent B (ammonium acetate in water) including 0.1% formic acid in a ratio of 95:05 v/v with a run time of 2 min isocratic (Supplementary Table S2. The compounds were detected by tandem mass spectrometry using electrospray ionization in the positive mode and using ion transitions m/z 821.5 -> 768.0 for TAC (standard) and m/z 721.1 -> 296.1 for ritonavir (internal standard).
Extraction of the drug from the plasma was carried out by the precipitation method. An aliquot of drug-free plasma spiked with 50 μl of ZnSO4 solution and 300 μl of methanol/acetonitrile (50:50, v/v) including IS was added. The mixture was vortex mixed for 30 s and centrifuged at 14,000 g (2000 rpm) at […] for 5 min. The supernatant solution was separated and filtered through a 0.45-µ membrane filter and stored at −20°C until use for analysis. The aforementioned extraction procedure was followed for all plasma samples, calibration curve samples, and QC samples. The optimization of the extraction procedure was required to reduce variation in the area of IS and improve injection to injection reproducibility. The schematic flow chart for the extraction procedure is depicted in Figure 1.
TAC (3 mg/kg) was administered orally to experimental rats (N = 6), and in another group, PRE at a dosage of 200 mg/kg was orally co-administered with TAC dosage of 3 mg/kg in a similar manner to six rats. Both groups were given a volume of 10 ml/kg which was a single dose to all animals. Blood samples were drawn at regular intervals, and the blood plasma concentration of TAC was assessed with the help of the validated LC-MS/MS technique ([Sattler et al., 1992]; [Alanbaki et al., 2019]).
Pretreatment of PRE (200 mg/kg) for a period of six consecutive days was done in group 2, and afterward, on the 7th day, in group 2, PRE (200 mg/kg) was co-administered with TAC (3 mg/kg) to experimental animals (N = 6). In group 1, a single dose of TAC (3 mg/kg) was administered to the animals at a volume of 10 ml/kg body weight.
To study the dose–effect relationship, the Wistar rats were equally distributed into five groups (N = 6 rats/group). PRE at a dose of 100, 200, 400, and 800 mg/kg was given by oral route to the rats, co-administrated with TAC (3 mg/kg). The drug TAC at a dose of 3 mg/kg was given similarly to all the rats in another group, with a volume of 10 ml/kg body weight. Blood was collected from the retro-orbital plexus, and the plasma samples were separated.
The experimental animals were fasted for 12 h before the collection of blood. A total of 300 μL of blood were collected in Eppendorf tubes containing heparinized solution at different time intervals (0, 0.5, 1.0, 2.0, 4.0, 8.0, 12, and 24 h). Plasma was separated and approximately 100 μl of samples was pipetted in the tubes (Figure 2). A total of 300 μl of methanol/acetonitrile (50:50, v/v) and 50 μl of ZnSO4 solution were added, and the solution was vortexed for 30 s and centrifuged at 14,000 g (2000 rpm) for 10 min (Figure 2). All the samples were stored at −20°C until further analysis ([Anlamlert and Sermsappasuk, 2020]).
Pharmacokinetic parameters such as time to reach the maximum concentration (Tmax) and Cmax of TAC were read from the […] (observed blood concentration vs. time profile). AUC0-12 was calculated with the help of a linear trapezoidal rule (Drug and Statistics (DAS) software version 2.1.1). […]

[3] = human, probe kit CYP3A4 substrate metabolised to resorufin (not named), read-out: % Relative Inhibition

T1 sequence (P08684 whole entry): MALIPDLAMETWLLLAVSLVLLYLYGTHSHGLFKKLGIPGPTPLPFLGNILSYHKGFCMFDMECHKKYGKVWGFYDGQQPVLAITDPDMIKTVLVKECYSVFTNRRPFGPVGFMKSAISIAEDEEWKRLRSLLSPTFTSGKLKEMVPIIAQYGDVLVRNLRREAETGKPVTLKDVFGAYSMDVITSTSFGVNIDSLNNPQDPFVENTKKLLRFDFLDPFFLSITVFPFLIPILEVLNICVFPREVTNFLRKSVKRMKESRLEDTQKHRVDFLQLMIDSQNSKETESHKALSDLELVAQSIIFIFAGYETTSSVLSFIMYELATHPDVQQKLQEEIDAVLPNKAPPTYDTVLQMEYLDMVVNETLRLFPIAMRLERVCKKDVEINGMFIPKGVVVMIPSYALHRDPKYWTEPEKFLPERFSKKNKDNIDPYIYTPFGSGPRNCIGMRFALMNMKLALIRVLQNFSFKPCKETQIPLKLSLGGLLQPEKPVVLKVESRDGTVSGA

| Mean plasma concentration of TAC ([2]; TAC 3 mg/kg co-administered with PRE 800 mg/kg, multiple-dose study) | AUC0-12 of TAC ([2]; TAC 3 mg/kg co-administered with PRE 100, 200, 400, 800 mg/kg) | Average plasma concentration of TAC ([2]; TAC 3 mg/kg co-administered with PRE 100 to 400 mg/kg, multiple-dose study) | t1/2 of TAC ([2]; TAC 3 mg/kg co-administered with PRE varied doses) | AUC0-inf of TAC ([2]; TAC 3 mg/kg p.o. alone) | Cmax ([2]; Wistar, po, TAC 3 mg/kg p.o. alone, rat plasma) | Tmax ([2]; Wistar, rat, plasma, po, TAC 3 mg/kg p.o. alone) | half-life ([2]; Wistar, rat, plasma, po, TAC 3 mg/kg p.o. alone, read-out: t1/2 of TAC (converted)) | SMILES | inhibition at 50 µM ([1]; human, probe kit CYP3A4 substrate metabolised to resorufin (not named), Concentration 50 (unit inferred), read-out: % Relative Inhibition) | inhibition at 100 µM ([1]; human, probe kit CYP3A4 substrate metabolised to resorufin (not named), Concentration 100 (unit inferred), read-out: % Relative Inhibition) | inhibition at 150 µM [1, 3] | inhibition at 200 µM [1, 3] | inhibition at 250 µM ([1]; human, probe kit CYP3A4 substrate metabolised to resorufin (not named), Concentration 250 (unit inferred), read-out: % Relative Inhibition) | inhibition at 300 µM ([1]; human, probe kit CYP3A4 substrate metabolised to resorufin (not named), Concentration 300 (unit inferred), read-out: % Relative Inhibition) | CYP3A4 inhibitory activity ([1]; varied concentrations) |
| --- | --- | --- | --- | --- | --- | --- | --- | --- | --- | --- | --- | --- | --- | --- | --- |
| – | – | – | – | – | – | – | – | O=C1O[C@H]2[C@@H]3OC(=O)c4cc(O)c(O)c(O)c4-c4c(O)c(O)c5oc(=O)c6c(c(O)c(O)c7oc(=O)c4c5c76)-c4c(cc(O)c(O)c4O)C(=O)OC[C@H]3OC(O)[C@@H]2OC(=O)c2cc(O)c(O)c(O)c2-c2c1cc(O)c(O)c2O (mixture of isomers) [Punicalagin] | 89.1% | 76.2% | 64.5% | 52.5% | 35.2% | 11.4% | exhibits CYP3A4 inhibitory activity |
| – | – | – | – | – | – | – | – | CC(=O)N1CCN(c2ccc(OCC3COC(Cn4ccnc4)(c4ccc(Cl)cc4Cl)O3)cc2)CC1 (centres unmarked) [Ketoconazole] | – | – | 72.5% | 55% | – | – | – |
| does not increase | increased with an increase in PRE doses | increases with an increase in PRE dose | prolonged | 61.91 ± 17.37 ngh/ml | 9.03 ± 1.21 ng/mL | 54.6 ± 10.8 min | 7.2 ± 2.4 min | C=CC[C@@H]1/C=C(\C)C[C@H](C)C[C@H](OC)[C@H]2O[C@@](O)(C(=O)C(=O)N3CCCC[C@H]3C(=O)O[C@H](/C(C)=C/[C@@H]3CC[C@@H](O)[C@H](OC)C3)[C@H](C)[C@@H](O)CC1=O)[C@H](C)C[C@@H]2OC [TAC, Tacrolimus] | – | – | – | – | – | – | – |

From PMC10154516, “Potential profound fluctuation in tacrolimus concentration on consumption of pomegranate rind extract: A Pharmacokinetic Experiment” (Frontiers in Pharmacology, 2023)
